Data taken from US20250319015A1, “VACCINIUM MACROCARPON EXTRACT AND ANTI-AGEING COSMETIC EFFECTS THEREOF” (SOCIETE INDUSTRIELLE LIMOUSINE D'APPLICATION BIOLOGIQUE, priority 2021, published 2025).
Read-outs that look alike come from different tables or passages of the source. Marks after values point to notes of the source that are not given here.

Key:
aquaporin 3 = assay: Aquaporin 3 synthesis in reconstructed epidermises (immunohistofluorescence); type: cell-based, human; settings: older reconstructed epidermises, 10 μM Retinol
Description: (§1) This study was carried out on normal and older reconstructed epidermises. The epidermal construction was evaluated using a Hematoxylin Eosin (HE) stain and the synthesis of the barrier function markers by immunohistofluorescence. The procedure of the study is described below. […] The epidermides are recovered, fixed, dehydrated, and enclosed in paraffin. Sections (4 μm) are then made using a microtome. […] Viewing is performed using a microscope coupled to an image analysis system. The thickness of the epidermises obtained was measured on the histological sections produced. The rate of the various synthesized markers is proportional to the intensity of green fluorescence present on the reconstructed epidermises. A quantitative analysis of the images was carried out using an image analysis script. The results are expressed in arbitrary units (AU).

[1] = system: healthy Caucasian female volunteers; assay: Anti-wrinkle effect by light projection (crow's feet), Caucasian volunteers; type: in vivo, human; settings: Retinol 0.075%
Description: The anti-wrinkle effect is evaluated according to the roughness parameter Sa, evaluated on the crow's feet zone by light projection and on the negative volume, evaluated on the same zone.

[2] = system: healthy Caucasian female volunteers; assay: Transepidermal water losses (Tewameter), Caucasian volunteers; type: in vivo, human; settings: Retinol 0.075%
Description: Transepidermal water losses (TEWL) measurements at the cheeks were carried out using a Tewameter® before and after 21 and 42 days of twice-daily application.
(§3) This study was carried out on 3 groups of 18 healthy, female volunteers, aged 45 to 66 years and presenting with crow's feet wrinkles. Each of the volunteers applied two of the three formulae to half the face twice-daily in a randomized manner for 42 days.

hyaluronic acid = assay: Hyaluronic acid synthesis by ELISA on older human fibroblasts; type: cell-based; settings: 1 μM Retinol
Description: The older human fibroblasts are seeded and incubated at 37° C. in an atmosphere containing 5% CO2.
(§4) The cells are then incubated at 37° C. in an atmosphere containing 5% CO2 for 48 hours.

[3] = system: human keratinocytes from older donors (≥60 years); assay: Gene expression by quantitative PCR on older human keratinocytes; type: cell-based; settings: 1 μM Retinol
Description: (§2) The procedure of the study is described below. The young and older human cells are seeded and incubated at 37° C. […] After several days, the cells are recovered and the total RNA extracted. The RNAs were reverse-transcribed and the complementary DNAs obtained were analyzed by the quantitative PCR technique. The mRNAs of internal reference controls were analyzed in parallel with the mRNAs of the markers involved in the barrier function of the epidermis, in the DEJ and in the dermal matrix. The incorporation of fluorescence is measured continuously using a thermal cycler. The RQ (relative quantification) analysis is performed using software.

[4] = system: healthy Caucasian female volunteers; assay: Quality of the dermal fibers by LC-OCT, Caucasian volunteers; type: in vivo, human; settings: Retinol 0.075%
Description: (§5) This study was carried out on 3 groups of 18 healthy female volunteers, aged 45 to 66 years and presenting with crow's feet wrinkles. Each of the volunteers applied two of the three study formulae to half the face twice-daily in a randomized manner for 42 days.
Acquisitions carried out by LC-OCT after 21 and 42 days of treatment at the cheeks allowed evaluation of the structure of the quality of the fibers.

[5] = system: healthy Caucasian female volunteers; assay: Complexion radiance by visual scoring by experts, Caucasian volunteers; type: in vivo, human; settings: Retinol 0.075%
Description: The complexion radiance is evaluated by experts using the following parameters: radiance, […], olive color and eye fatigue.

[6] = system: older reconstructed epidermises; assay: Thickness of reconstructed epidermises (hematoxylin eosin stain); type: cell-based, human; settings: 10 μM Retinol
Description: This study was carried out on normal and older reconstructed epidermises. The epidermal construction was evaluated using a Hematoxylin Eosin (HE) stain and the synthesis of the barrier function markers by immunohistofluorescence. The procedure of the study is described below. […] The epidermides are recovered, fixed, dehydrated, and enclosed in paraffin. Sections (4 μm) are then made using a microtome. The analysis of the thickness of the reconstructed epidermises is carried out by hematoxylin eosin (HE) stain. Viewing is performed using a microscope coupled to an image analysis system. The thickness of the epidermises obtained was measured on the histological sections produced.

MMP-1 = MMP-1 level by ELISA on older human fibroblasts subjected to UVA; type: cell-based; settings: UVA-irradiated older fibroblasts, 1 μM Retinol
Description: The older human fibroblasts are seeded and incubated at 37° C. in an atmosphere containing 5% CO2. The irradiations are carried out using a UV lamp with UVA intensities of 10 J/cm2.
as §4

collagen I = assay: Collagen I network by immunocytology on older human fibroblasts; type: cell-based; settings: 0.1 μM Retinol
Description: Immunocytological labeling of collagen I is carried out by fixing and permeabilization using primary antibody I and secondary antibody coupled to a fluorophore. A quantitative analysis was carried out by reading the fluorescence of the various conditions tested using a fluorometer. The intensity of the collagen I network is proportional to the intensity of green fluorescence present. The results are expressed in fluorescence value (AU).

[7] = system: healthy Caucasian female volunteers; settings: for Parameter a* (skin redness), change compared to placebo: Retinol 0.075%
Description: as §3

loricrin = assay: Loricrin synthesis in reconstructed epidermises (immunohistofluorescence); type: cell-based, human; settings: older reconstructed epidermises, 10 μM Retinol
Description: as §1

[8] = system: healthy Caucasian female volunteers; assay: Structure of the dermal-epidermal junction by LC-OCT, Caucasian volunteers; type: in vivo, human; settings: Retinol 0.075%
Description: as §5
Acquisitions carried out by LC-OCT after 21 and 42 days of treatment at the cheeks allowed evaluation of the structure of the dermal-epidermal junction

claudin-1 = assay: Claudin-1 synthesis in reconstructed epidermises (immunohistofluorescence); type: cell-based, human; settings: older reconstructed epidermises, 10 μM Retinol
Description: as §1

[9] = system: healthy Caucasian female volunteers; settings: retinol 0.075%, 18 volunteers
Description: as §3

Ki-67 = Ki-67 synthesis in reconstructed epidermises (immunohistofluorescence); type: cell-based, human; settings: older reconstructed epidermises, 10 μM Retinol
Description: as §1

older human cells = assay: Gene expression by quantitative PCR, structural elements of the DEJ, older cells; type: cell-based; settings: 1 μM Retinol
Description: This study was carried out on 34 genes involved in the various processes related to the establishment of: • the skin barrier function: proliferation, hydration, cohesion, differentiation, desquamation, innate immunity, anti-oxidant and inflammation system (cf. Table 9: Proliferation, Hydration, Cohesion, Differentiation, Anti-Radical and Inflammation). • the dermal-epidermal junction DEJ; • the dermal matrix; organization and degradation of the fibers, hydration and inflammation (cf. Table 9: Matrix Organization, Matrix Degradation, Hydration, Proteoglycan, Growth and Inflammation Factors). […] The procedure of the study is described below. The young and older human cells are seeded and incubated at 37° C. […] After several days, the cells are recovered and the total RNA extracted. The RNAs were reverse-transcribed and the complementary DNAs obtained were analyzed by the quantitative PCR technique. The mRNAs of internal reference controls were analyzed in parallel with the mRNAs of the markers involved in the barrier function of the epidermis, in the DEJ and in the dermal matrix. The incorporation of fluorescence is measured continuously using a thermal cycler. The RQ (relative quantification) analysis is performed using software.

[10] = system: older human fibroblasts by successive replications; assay: Gene expression by quantitative PCR on older human fibroblasts; type: cell-based; settings: 1 μM Retinol
Description: as §2

CC1=C(/C=C/C(C)=C/C=C/C(C)=C/CO)C(C)(C)CCC1 [Retinol, retinol]
Ability to restore aquaporin 3 synthesis (%) (aquaporin 3): +100%
Aquaporin 3 synthesis (×10^4 AU) (aquaporin 3; 48 hours): 355** ×10^4 AU
Negative Volume (crow's feet), change compared to placebo ([1]; D 21): −12%
Parameter Sa (roughness, crow's feet), change compared to placebo ([1]; D 21): −5%
Negative Volume (crow's feet), change compared to placebo ([1]; D 42): −20%
Parameter Sa (roughness, crow's feet), change compared to placebo ([1]; D 42): −7%
Negative Volume (crow's feet), change compared to placebo ([1]; D 42, listed as retinol): −20%
Water loss, change compared to placebo ([2]; D 21): +24%
Water loss, change compared to placebo ([2]; D 21, listed as retinol): +24%
Water loss, change compared to placebo ([2]; D 42): +15%
Water loss, change compared to placebo ([2]; D 42, listed as retinol): +15%
Synthesis of hyaluronic acid (ng/mg proteins) (hyaluronic acid; Older fibroblasts, 48 hours): 4112 ng/mg proteins
Content of hyaluronic acid/control (%) (hyaluronic acid; older fibroblasts): +8%
AQP3: Efficacy of retinol/older control (%) [3]: +13%
CD44: Efficacy of retinol/older control (%) [3]: +77%
CLDN1: Efficacy of retinol/older control (%) [3]: −52%
CXCL8: Efficacy of retinol/older control (%) [3]: +189%
DSG: Efficacy of retinol/older control (%) [3]: −99%
FLG: Efficacy of retinol/older control (%) [3]: −76%
HAS3: Efficacy of retinol/older control (%) [3]: +425%
IVL: Efficacy of retinol/older control (%) [3]: +126%
KRT10: Efficacy of retinol/older control (%) [3]: −97%
LOR: Efficacy of retinol/older control (%) [3]: −95%
MKI67: Efficacy of retinol/older control (%) [3]: +44%
S100A7: Efficacy of retinol/older control (%) [3]: +1384%
S100A8: Efficacy of retinol/older control (%) [3]: +23%
S100A9: Efficacy of retinol/older control (%) [3]: +108%
SOD1: Efficacy of retinol/older control (%) [3]: +7%
TGM1: Efficacy of retinol/older control (%) [3]: −31%
AQP3 expression (qPCR) ([3]; young cells control=100): 69
CD44 expression (qPCR) ([3]; young cells control=100): 147
CLDN1 expression (qPCR) ([3]; young cells control=100): 33
CXCL8 expression (qPCR) ([3]; young cells control=100): 729
DSG expression (qPCR) ([3]; young cells control=100): 1
FLG expression (qPCR) ([3]; young cells control=100): 9
HAS3 expression (qPCR) ([3]; young cells control=100): 357
IVL expression (qPCR) ([3]; young cells control=100): 120
KRT10 expression (qPCR) ([3]; young cells control=100): 2
LOR expression (qPCR) ([3]; young cells control=100): 1
MKI67 expression (qPCR) ([3]; young cells control=100): 95
S100A7 expression (qPCR) ([3]; young cells control=100): 564
S100A8 expression (qPCR) ([3]; young cells control=100): 256
S100A9 expression (qPCR) ([3]; young cells control=100): 397
SOD1 expression (qPCR) ([3]; young cells control=100): 95
TGM1 expression (qPCR) ([3]; young cells control=100): 47
Fiber Quality, change compared to placebo ([4]; D 21): +3%
Fiber Quality, change compared to placebo ([4]; D 21, listed as retinol): +3%
Fiber Quality, change compared to placebo ([4]; D 42): +12%
Eye fatigue, change compared to placebo ([5]; D 21): −2%
Olive color, change compared to placebo ([5]; D 21): −11%
Pinkness, change compared to placebo ([5]; D 21): +14%
Radiance, change compared to placebo ([5]; D 21): +6%
Eye fatigue, change compared to placebo ([5]; J42): −10%
Olive color, change compared to placebo ([5]; J42): −10%
Pinkness, change compared to placebo ([5]; J42): +19%
Radiance, change compared to placebo ([5]; J42): +11%
Ability to restore the thickness of the epidermis (%) [6]: +94%
Measurement of the thickness of the epidermis (μm) ([6]; 48 hours): 59 μm
Ability to reduce the MMP-1 level (%) (MMP-1): +33%
MMP-1 content (ng/mg proteins) (MMP-1; 48 hours): 46 ng/mg proteins
Synthesis of the collagen I network (×10^3 AU) (collagen I): 174 ×10^3 AU
Appearance of skin redness, parameter a* (in words) ([7]; 0.075% of retinol, from 21 days of treatment): significantly increases parameter a*
Parameter a* (skin redness), change compared to placebo ([7]; D 21): +5%
Parameter a* (skin redness), change compared to placebo ([7]; D 42): +5%
Ability to restore loricrin synthesis (%) (loricrin): 0%
Synthesis of loricrin (×10^4 AU) (loricrin; 48 hours): 177 ×10^4 AU
Sinuosity of the DEJ, change compared to placebo ([8]; D 21): +2%
Sinuosity of the DEJ, change compared to placebo ([8]; D 21, listed as retinol): +2%
Sinuosity of the DEJ, change compared to placebo ([8]; D 42): +3%
Sinuosity of the DEJ, change compared to placebo ([8]; D 42, listed as retinol): +3%
Ability to restore claudin-1 synthesis (%) (claudin-1): 0%
Synthesis of claudin-1 (×10^4 AU) (claudin-1; 48 hours): 136 ×10^4 AU
Incident rate of adverse effects [9]: 17%
Subjects who demonstrated adverse effects likely caused by the study product ([9]; 42 days): three
Ability to restore Ki-67 synthesis (%) (Ki-67): +71%
Ki-67-positive cells (%) (Ki-67; 48 hours): 23%
COL4A1: Efficacy of retinol/older control (%) (older human cells): −5%
COL7A1: Efficacy of retinol/older control (%) (older human cells): −21%
COL17A1: Efficacy of retinol/older control (%) (older human cells): −16%
LAMA3: Efficacy of retinol/older control (%) (older human cells): −9%
COL4A1 expression (qPCR) (older human cells; young cells control=100): 38
COL7A1 expression (qPCR) (older human cells; young cells control=100): 68
COL17A1 expression (qPCR) (older human cells; young cells control=100): 81
LAMA3 expression (qPCR) (older human cells; young cells control=100): 94
ACAN: Efficacy of retinol/older control (%) [10]: −74%
AQP3: Efficacy of retinol/older control (%) [10]: +30%
BGN: Efficacy of retinol/older control (%) [10]: +24%
COL1A1: Efficacy of retinol/older control (%) [10]: +25%
COL3A1: Efficacy of retinol/older control (%) [10]: +67%
CXCL8: Efficacy of retinol/older control (%) [10]: +282%
DCN: Efficacy of retinol/older control (%) [10]: +7%
ELN: Efficacy of retinol/older control (%) [10]: +5%
FBN1: Efficacy of retinol/older control (%) [10]: −1%
HSPG2: Efficacy of retinol/older control (%) [10]: +3%
IL1: Efficacy of retinol/older control (%) [10]: +151%
LUM: Efficacy of retinol/older control (%) [10]: −3%
MMP1: Efficacy of retinol/older control (%) [10]: −24%
POSTN: Efficacy of retinol/older control (%) [10]: +24%
TGFβ1: Efficacy of retinol/older control (%) [10]: +8%
VEGFA: Efficacy of retinol/older control (%) [10]: +2%
ACAN expression (qPCR) ([10]; young cells control=100): 10
AQP3 expression (qPCR) ([10]; young cells control=100): 73
BGN expression (qPCR) ([10]; young cells control=100): 78
COL1A1 expression (qPCR) ([10]; young cells control=100): 79
COL3A1 expression (qPCR) ([10]; young cells control=100): 72
CXCL8 expression (qPCR) ([10]; young cells control=100): 803
DCN expression (qPCR) ([10]; young cells control=100): 89
ELN expression (qPCR) ([10]; young cells control=100): 63
FBN1 expression (qPCR) ([10]; young cells control=100): 90
HSPG2 expression (qPCR) ([10]; young cells control=100): 90
IL1 expression (qPCR) ([10]; young cells control=100): 567
LUM expression (qPCR) ([10]; young cells control=100): 87
MMP1 expression (qPCR) ([10]; young cells control=100): 164
POSTN expression (qPCR) ([10]; young cells control=100): 56
TGFβ1 expression (qPCR) ([10]; young cells control=100): 103
VEGFA expression (qPCR) ([10]; young cells control=100): 93
